What all share (experiment): Kinase panel profiling at 1 µmol/L (MSA or IMAP), percentage inhibition
What all share (format): biochemical

Experiment [1] concerns the target panel of 255 wild-type kinases (Homo sapiens, UniProt O96013). The following applies: PAK4; 1 µmol/L single concentration; read-out: %-inhibition, PAK4.
The target in experiment [2] is panel of 255 wild-type kinases (Homo sapiens, UniProt Q15119). Particulars: kinase PDHK2; 1 µmol/L single concentration; read-out: %-inhibition at 1 µmol/L, PDHK2.
Experiment [3] concerns the target T1, panel of 255 wild-type kinases (Homo sapiens, UniProt Q96L34).
T1 sequence (Q96L34 1-752): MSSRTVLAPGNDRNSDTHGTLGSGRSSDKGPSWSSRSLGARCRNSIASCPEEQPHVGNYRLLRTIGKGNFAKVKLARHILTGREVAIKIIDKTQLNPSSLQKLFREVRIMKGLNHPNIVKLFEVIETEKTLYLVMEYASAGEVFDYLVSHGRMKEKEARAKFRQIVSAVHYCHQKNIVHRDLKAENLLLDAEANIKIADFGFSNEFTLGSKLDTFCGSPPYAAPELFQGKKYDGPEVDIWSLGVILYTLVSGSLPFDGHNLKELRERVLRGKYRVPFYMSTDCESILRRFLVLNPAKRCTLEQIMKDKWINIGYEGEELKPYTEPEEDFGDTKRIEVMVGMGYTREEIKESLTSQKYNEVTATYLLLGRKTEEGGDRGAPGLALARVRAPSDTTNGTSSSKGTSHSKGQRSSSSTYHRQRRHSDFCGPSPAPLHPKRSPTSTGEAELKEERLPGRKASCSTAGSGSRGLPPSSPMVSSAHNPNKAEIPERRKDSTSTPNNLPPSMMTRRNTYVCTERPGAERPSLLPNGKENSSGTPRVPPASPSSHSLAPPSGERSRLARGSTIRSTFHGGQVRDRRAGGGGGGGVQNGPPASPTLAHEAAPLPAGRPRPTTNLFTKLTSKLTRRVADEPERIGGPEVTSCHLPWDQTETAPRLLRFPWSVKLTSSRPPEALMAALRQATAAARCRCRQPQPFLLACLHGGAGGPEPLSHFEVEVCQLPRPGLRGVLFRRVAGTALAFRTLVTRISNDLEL
Particulars: MARK4; 1 µmol/L single concentration; read-out: %-inhibition, MARK4.

In experiment [4] the target is T2, panel of 255 wild-type kinases (Homo sapiens, UniProt O15111).
T2 sequence (O15111 1-745): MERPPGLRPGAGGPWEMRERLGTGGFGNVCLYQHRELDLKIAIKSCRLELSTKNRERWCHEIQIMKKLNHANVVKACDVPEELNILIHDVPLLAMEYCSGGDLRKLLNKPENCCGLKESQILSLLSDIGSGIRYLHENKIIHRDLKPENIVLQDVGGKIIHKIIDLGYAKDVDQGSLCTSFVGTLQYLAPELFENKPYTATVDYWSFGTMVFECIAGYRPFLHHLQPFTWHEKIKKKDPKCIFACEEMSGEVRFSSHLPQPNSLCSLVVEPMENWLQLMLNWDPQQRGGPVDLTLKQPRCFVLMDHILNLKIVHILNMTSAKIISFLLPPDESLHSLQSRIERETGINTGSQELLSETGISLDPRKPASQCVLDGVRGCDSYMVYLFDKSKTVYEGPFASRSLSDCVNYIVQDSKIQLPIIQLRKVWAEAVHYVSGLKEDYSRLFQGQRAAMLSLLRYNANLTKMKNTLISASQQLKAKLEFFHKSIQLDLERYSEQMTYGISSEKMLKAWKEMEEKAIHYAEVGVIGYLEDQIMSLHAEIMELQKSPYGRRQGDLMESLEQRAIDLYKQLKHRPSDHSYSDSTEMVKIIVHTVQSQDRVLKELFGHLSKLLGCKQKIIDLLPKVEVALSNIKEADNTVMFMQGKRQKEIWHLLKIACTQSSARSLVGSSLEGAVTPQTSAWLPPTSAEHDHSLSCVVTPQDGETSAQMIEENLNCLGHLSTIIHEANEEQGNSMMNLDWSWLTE
Particulars: kinase IKKα; 1 µmol/L single concentration; read-out: %-inhibition at 1 µmol/L, IKKα.

The target in experiment [5] is panel of 255 wild-type kinases (Homo sapiens, UniProt P10721). Particulars: read-out: %-inhibition at 1 µmol/L, KIT.
Experiment [6] has as its target panel of 255 wild-type kinases (Homo sapiens, UniProt P22612). Particulars: kinase PKACγ; 1 µmol/L single concentration; read-out: %-inhibition at 1 µmol/L, PKACγ.
Experiment [7] deals with panel of 255 wild-type kinases (Homo sapiens, UniProt P08922). The following applies: kinase ROS; 1 µmol/L single concentration; read-out: %-inhibition at 1 µmol/L, ROS.
Experiment [8] concerns the target panel of 255 wild-type kinases (Homo sapiens, UniProt P11802). Particulars: CDK4/CycD3 kinase assay; 1 µmol/L single concentration; read-out: %-inhibition CDK4/CycD3.
Experiment [9] addresses panel of 255 wild-type kinases (Homo sapiens, UniProt Q13627). Particulars: kinase DYRK1A; 1 µmol/L single concentration; read-out: %-inhibition at 1 µmol/L, DYRK1A.
In experiment [10] the target is panel of 255 wild-type kinases (Homo sapiens, UniProt Q9UK32). The following applies: kinase RSK4; 1 µmol/L single concentration; read-out: %-inhibition at 1 µmol/L, RSK4.
The target in experiment [11] is T3, panel of 255 wild-type kinases (Homo sapiens, UniProt O00141).
T3 sequence (O00141 1-431): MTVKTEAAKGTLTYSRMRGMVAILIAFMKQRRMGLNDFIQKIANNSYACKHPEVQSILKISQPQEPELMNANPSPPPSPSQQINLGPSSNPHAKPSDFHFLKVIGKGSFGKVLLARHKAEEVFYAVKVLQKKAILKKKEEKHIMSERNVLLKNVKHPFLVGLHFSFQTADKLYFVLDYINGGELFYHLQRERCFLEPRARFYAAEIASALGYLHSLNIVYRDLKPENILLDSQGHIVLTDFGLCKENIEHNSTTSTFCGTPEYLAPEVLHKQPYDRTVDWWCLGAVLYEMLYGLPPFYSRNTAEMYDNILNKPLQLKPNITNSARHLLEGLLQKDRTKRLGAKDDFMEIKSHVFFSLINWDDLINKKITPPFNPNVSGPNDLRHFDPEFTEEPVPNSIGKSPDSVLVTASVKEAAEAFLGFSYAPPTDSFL
The following applies: kinase SGK; 1 µmol/L single concentration; read-out: %-inhibition at 1 µmol/L, SGK.

Setting [12] is: kinase KIT, 1 µmol/L single concentration.

Read-outs that look alike come from different tables or passages of the source.

As to `Cc1cc(Nc2ncnc3ccc(NC4=NC(C)(C)CO4)cc23)ccc1Oc1ccn2ncnc2c1` [tucatinib], the inhibition at 1 µM is 5% in experiment [1]; -2% in experiment [2]; -0.473% in experiment [3]; -1.68% in experiment [4]; -1.27% in [5] (setting [12]); -0.548% in [6]. The inhibition at 1 µM in experiment [7] was 21%; in [8], -2%; in [9] it was -3.25%; in experiment [10], 0.229%; in experiment [11], 0.299%.
On to `C=CC(=O)N1CCC([C@@H]2CCNc3c(C(N)=O)c(-c4ccc(Oc5ccccc5)cc4)nn32)CC1` [zanubrutinib], for which the inhibition at 1 µM is -11% in experiment [1]; 5% in [2]; -7.42% in experiment [3]; -10% in experiment [4]; -4.47% in experiment [5] (setting [12]); -4.62% in experiment [6]. The inhibition at 1 µM in [7] was 1.9%; in [8], -1.7%; in experiment [9] it was -4.37%; in [10], -6%; in [11] it was -0.675%.
On to `Cn1cnc2c(F)c(Nc3ccc(Br)cc3F)c(C(=O)NOCCO)cc21` [binimetinib], for which the inhibition at 1 µM was -2.71% in experiment [1]; -1.13% in [2]; -4% in [3]; 9% in [4]; -0.242% in experiment [5] (setting [12]); -3% in experiment [6]. Further, the inhibition at 1 µM in [7] was 16%; in experiment [8] it was 3.25%; in [9], -8%; in experiment [10] it was -0.233%; in [11], 5%.
For `COc1ccc(CN2C3CC2CN(c2ccc(-c4cc(OCC(C)(C)O)cn5ncc(C#N)c45)cn2)C3)cn1` [selpercatinib], the inhibition at 1 µM in experiment [1] is 8%; in experiment [2], -0.608%; in experiment [3], 25%; in experiment [4], -1.36%; in experiment [5] (setting [12]), 54%; in experiment [6] it was -2.63%. Also, the inhibition at 1 µM in [7] was found to be 64%; in experiment [8], 0.921%; in experiment [9] it was 6%; in experiment [10] it was 43%; in experiment [11], 11%.
With `CCN1C(=O)N(c2c(F)c(OC)cc(OC)c2F)Cc2cnc3[nH]c(CN4CCOCC4)cc3c21` [pemigatinib], the inhibition at 1 µM was -1.88% in experiment [1]; 3.53% in experiment [2]; 52% in experiment [3]; -6% in [4]; 23% in [5]; -3.56% in experiment [6]. Besides, the inhibition at 1 µM in experiment [7] is 3.74%; in [8], 9%; in experiment [9], -2.67%; in experiment [10], -7%; in experiment [11], 5%.
For `CO[C@]1(C(=O)N[C@@H](C)c2ccc(-n3cc(F)cn3)nc2)CC[C@H](c2nc(C)cc(Nc3cc(C)[nH]n3)n2)CC1` [pralsetinib], the inhibition at 1 µM was 66% in experiment [1]; 1.11% in [2]; -9% in experiment [3]; -1.52% in experiment [4]; 83% in experiment [5] (setting [12]); 10% in [6]. For the same compound, the inhibition at 1 µM in experiment [7] is 94%; in experiment [8] it was -1%; in [9], -3%; in experiment [10], 37%; in [11], 7%.
On to `C[C@H]1Oc2cc(cnc2N)-c2c(nn(C)c2C#N)CN(C)C(=O)c2ccc(F)cc21` [lorlatinib], for which the inhibition at 1 µM in [1] is 1.84%; in [2] it was 1.88%; in [3], 18%; in experiment [4], 12%; in experiment [5] (setting [12]), 4.22%; in experiment [6] it was -6%. Also, the inhibition at 1 µM is 101% in experiment [7]; -7% in experiment [8]; -4.39% in experiment [9]; -2% in [10]; -0.181% in [11].
Turning to `Cc1nc(NC(=O)N2CCC[C@H]2C(N)=O)sc1-c1ccnc(C(C)(C)C(F)(F)F)c1` [alpelisib], the inhibition at 1 µM in experiment [1] was 0.0966%; in [2] it was 0.0902%; in experiment [3] it was 0.414%; in [4], 6%; in experiment [5] (setting [12]), 5%; in [6], -7.38%. Besides, the inhibition at 1 µM in experiment [7] is -6%; in experiment [8] it was -10%; in experiment [9] it was 6%; in experiment [10], -4%; in experiment [11], -5.64%.
Turning to `FC(F)(F)c1ccc(CNc2ccc(Cc3c[nH]c4ncc(Cl)cc34)cn2)cn1` [pexidartinib], the inhibition at 1 µM is 11% in experiment [1]; 4% in experiment [2]; 17% in [3]; -0.379% in experiment [4]; 87% in experiment [5] (setting [12]); 3% in experiment [6]. In addition, the inhibition at 1 µM in experiment [7] was 37%; in experiment [8] it was -1.58%; in experiment [9] it was 8%; in [10], 24%; in [11], 11%.

The values are drawn from article PMC9516332 (Frontiers in Oncology, 2022).
